Some test systems named below: Acinetobacter baumannii; Escherichia coli ML-35p; Escherichia coli C600; Aspergillus niger; Penicillium expansum.
Common to all, as to experiment: ≥ marks a high value that may be exact or a test limit, other limits are often not marked, values filed in µg/mL are converted to µM
The subject of assay [1] is Escherichia coli ATCC 25922.
The test system of assay [2] is Staphylococcus aureus LAC.
Assay [3] relates to Bacillus megaterium VKM41.
For assay [4], the system named is Escherichia coli BL21(DE3).
Assay [5] deals with Micrococcus luteus VKM B-1314.
The test system of assay [6] is Bacillus licheniformis VK21.
In assay [7] the test system is Bacillus subtilis VKM B-886.
The test system of assay [8] is Pseudomonas aeruginosa PAO1.
Assay [9] deals with Staphylococcus aureus 209P.
The test system of assay [10] is Staphylococcus aureus ATCC 29213.
Assay [11] has as its system Candida albicans KCTC 7270.
Assay [12] concerns Staphylococcus aureus CCARM 3090.
In assay [13] the test system is Staphylococcus aureus CCARM 3518.
In assay [14] the test system is Escherichia coli CCARM 1238.
Assay [15] concerns Pseudomonas aeruginosa 4007.
Assay [16] deals with Pseudomonas aeruginosa 4891.
Assay [17] relates to Trichosporon beigelii KCTC 7707.
The test system of assay [18] is Escherichia coli CCARM 1229.
The test system of assay [19] is Klebsiella oxytoca ATCC 13182.
The test system of assay [20] is Staphylococcus aureus ATCC 80958.
For assay [21], the system named is Klebsiella pneumoniae ATCC 700603.
Assay [22] has as its system Escherichia coli ATCC 35218.
The subject of assay [23] is Serratia marcescens ATCC 13880.
Assay [24] concerns Staphylococcus aureus KCTC 1621.
Assay [25] deals with Enterococcus faecium ATCC 51559.
Assay [26] concerns Escherichia coli KCTC 1682.
The test system of assay [27] is Enterococcus faecium KCCM 12118.
Assay [28] deals with Staphylococcus epidermidis KCTC 1917.
For assay [29], the system named is Pseudomonas aeruginosa KCTC 1637.
The test system of assay [30] is Enterococcus faecalis KCCM 29212.
In assay [31] the test system is Bacillus subtilis KCTC 3068.
Assay [32] has as its system Salmonella typhimurium KCTC 1926.
Assay [33] deals with Enterococcus faecalis ATCC 51575.
Assay [34] concerns Staphylococcus aureus KCCM 40510.

Molecules are shown by their SMILES. In brackets after ≈: the same amount, converted by molar mass.

Broadly, the MIC is the lowest concentration that inhibits growth of the organism. A low value points to inhibition by little substance.

`NC(N)=NCCC[C@H](NC(=O)[C@H](CCCN=C(N)N)NC(=O)[C@H](CCCN=C(N)N)NC(=O)[C@H](CCCN=C(N)N)NC(=O)[C@H](Cc1ccccc1)NC(=O)[C@H](Cc1ccccc1)NC(=O)[C@H](Cc1ccccc1)NC(=O)[C@@H](N)Cc1ccccc1)C(=O)O` [FFFFRRRR]: the MIC was > 104 µM in [1] and ≥ 104 µM in assay [2].
For the compound `CC[C@H](C)[C@H](NC(=O)[C@H](C)NC(=O)[C@@H](NC(=O)CNC(=O)[C@@H](NC(=O)[C@H](CC(N)=O)NC(=O)[C@H](CCCCN)NC(=O)[C@H](C)NC(=O)CNC(=O)[C@H](CC(=O)O)NC(=O)[C@H](Cc1c[nH]c2ccccc12)NC(=O)[C@@H](NC(=O)[C@H](CO)NC(=O)[C@H](CO)NC(=O)[C@H](Cc1c[nH]c2ccccc12)NC(=O)[C@H](Cc1ccccc1)NC(=O)CN)C(C)C)C(C)C)[C@@H](C)O)C(=O)O` [GFWSSVWDGAKNVGTAI], the MIC was ≥ 64 µM with Acinetobacter baumannii; 16 µM (≈ 28.7 µg/mL) in assay [3]; ≥ 64 µM in [4]; 16 µM (≈ 28.7 µg/mL) in assay [5]; 16 µM (≈ 28.7 µg/mL) in assay [6]; 16 µM (≈ 28.7 µg/mL) in [7]. The minimal inhibitory concentration (MIC) is > 64 µM in [8]; 16 µM (≈ 28.7 µg/mL) in [9]; ≥ 64 µM with Escherichia coli ML-35p; > 16 µM in assay [10]; ≥ 64 µM with Escherichia coli C600.
As to `CC[C@H](C)[C@H](NC(=O)[C@H](C)NC(=O)[C@H](CCC(=O)O)NC(=O)[C@H](Cc1cnc[nH]1)NC(=O)[C@@H](NC(=O)[C@H](CCCCN)NC(=O)[C@H](CCC(N)=O)NC(=O)[C@H](Cc1ccccc1)NC(=O)[C@@H](NC(=O)[C@H](CCCCN)NC(=O)[C@H](CCCCN)NC(=O)[C@H](CC(C)C)NC(=O)[C@H](C)NC(=O)[C@H](CC(N)=O)NC(=O)[C@H](CC(C)C)NC(=O)CN)C(C)C)[C@@H](C)CC)C(=O)N[C@@H](CCCCN)C(=O)N[C@@H](CC(C)C)C(=O)N[C@H](C(=O)N[C@@H](CC(N)=O)C(=O)N[C@@H](CC(N)=O)C(=O)N[C@@H](Cc1cnc[nH]1)C(=O)N[C@H](C(=O)N[C@@H](CCC(N)=O)C(N)=O)C(C)C)[C@@H](C)CC` [GLNALKKVFQKIHEAIKLINNHVQ], the MIC is ≥ 32 µM in assay [11]; 4 µM (≈ 11 µg/mL) in assay [12]; 4 µM (≈ 11 µg/mL) in [13]; 2 µM (≈ 5.51 µg/mL) in [14]; 2 µM (≈ 5.51 µg/mL) in [15]; 4 µM (≈ 11 µg/mL) in assay [16]. In addition, the MIC in assay [17] is ≥ 32 µM; in [18], 2 µM (≈ 5.51 µg/mL).
In the case of `CC[C@H](C)[C@H](NC(=O)[C@H](Cc1ccc(O)cc1)NC(=O)[C@H](Cc1ccc(O)cc1)NC(=O)[C@H](CO)NC(=O)CNC(=O)CNC(=O)[C@H](CC(N)=O)NC(=O)[C@H](CCCN=C(N)N)NC(=O)[C@H](CC(C)C)NC(=O)[C@H](Cc1ccccc1)NC(=O)[C@H](CC(N)=O)NC(=O)CN)C(=O)N[C@H](C(=O)N1CCC[C@H]1C(=O)N[C@@H](C)C(=O)N[C@@H](Cc1ccccc1)C(=O)N[C@@H](CCCN=C(N)N)C(=O)NCC(=O)O)C(C)C` [GNFLRNGGSYYIVPAFRG], the MIC is 30 µM (≈ 59.6 µg/mL) in assay [19]; 30 µM (≈ 59.6 µg/mL) in assay [20]; > 30 µM in assay [21]; 30 µM (≈ 59.6 µg/mL) in assay [22]; 30 µM (≈ 59.6 µg/mL) in assay [23].
On to `CC(C)C[C@H](NC(=O)[C@H](Cc1ccccc1)NC(=O)[C@H](CCCN=C(N)N)NC(=O)[C@@H]1CCCN1C(=O)[C@H](C)NC(=O)[C@H](Cc1c[nH]c2ccccc12)NC(=O)[C@H](Cc1c[nH]c2ccccc12)NC(=O)[C@H](C)NC(=O)[C@H](CCCN=C(N)N)NC(=O)[C@H](Cc1ccccc1)NC(=O)[C@H](Cc1ccccc1)NC(=O)[C@H](CCCCN)NC(=O)[C@@H](N)CCCCN)C(=O)N[C@@H](CCCCN)C(N)=O` [KKFFRAWWAPRFLK], for which the MIC against Aspergillus niger was 26.6 µM (≈ 50 µg/mL); with Penicillium expansum, 13.3 µM (≈ 25 µg/mL).
Consider `CC[C@H](C)[C@H](NC(=O)[C@H](CC(C)C)NC(=O)[C@H](CC(C)C)NC(=O)[C@@H](N)CC(C)C)C(=O)N[C@H](C(=O)N[C@@H](CC(C)C)C(=O)N[C@@H](CCCN=C(N)N)C(=O)N[C@@H](CCCCN)C(=O)N[C@@H](CCCCN)C(N)=O)C(C)C` [LLLIVLRKK], for which the MIC in assay [24] was determined as 3.65 µM (≈ 4 µg/mL); in assay [25], 0.913 µM (≈ 0.999 µg/mL); in assay [26] it was 3.65 µM (≈ 4 µg/mL); in [27], 1.83 µM (≈ 2 µg/mL); in [28], 3.65 µM (≈ 4 µg/mL); in assay [29] it was 7.3 µM (≈ 7.99 µg/mL). Also, the MIC in [30] is 1.83 µM (≈ 2 µg/mL); in [31] it was 1.83 µM (≈ 2 µg/mL); in assay [32], 3.65 µM (≈ 4 µg/mL); in [33], 3.65 µM (≈ 4 µg/mL); in assay [34], 3.65 µM (≈ 4 µg/mL).
